Experimental findings from US20240400991A1, “IMMUNE CELLS WITH REDUCED ANDROGEN RECEPTOR (AR) LEVEL, AND METHODS OF THEIR USE TO ENHANCE ANTI-CANCER THERAPY” (Oregon Health & Science University, priority 2021, published 2024) are described below.

The test system of experiment [1] is CD8 tumor infiltrating cells. Nature of the experiment: Flow cytometry / intracellular cytokine staining of tumor infiltrating CD8 T cells in PPSM tumor bearing animals. Conditions: FIGS. 8I-8L. It counts as in vivo, mouse. Here is the method:
(subcutaneous) injection once every 14 days.
Flow cytometry. Cells were incubated for 20 min on ice with e506 fixable viability dye and the following antibodies: […] (H57-597), CD4 (RM4-5), CD8 (53-6.7), CD44 (IM7), PD-1 (J43) and Thy1.1 (HIS51). Intracellular proteins Ki67 (SolA15), IFNγ (XMG1.2), TNFα (MP6-CT22), Nur77 (12.14) and Granzyme B (NGZB) were detected using the Fixation/Permeabilization Solution kit from BD Biosciences. All antibodies and viability dyes were purchased from eBioscience, Biolegend, or BD Biosciences. Data were collected with a Fortessa™ flow cytometer (BD Biosciences) and analyzed using FlowJo software (Tree Star). Unless noted otherwise in the figure legend, cells were gated through live/TCRβ+/CD8+ gates for analysis.
In vitro activation and intracellular cytokine staining.

The subject of experiment [2] is OTI T cells in the tumor. The experiment is described as follows: Adoptive T cell therapy model: OT1 CD8 T cells in MCA-OVA tumor bearing RIP-mOVA animals.

The structures appear in SMILES notation.

Regarding `CNC(=O)c1ccc(N2C(=S)N(c3ccc(C#N)c(C(F)(F)F)c3)C(=O)C2(C)C)cc1F` [enzalutamide, 4-(3-(4-cyano-3-(trifluoromethyl)phenyl)-5,5-dimethyl-4-oxo-2-thioxoimidazolidin-I-yl)-2-fluoro-N-methyl benzamide], the “polyfunctionality of tumor-associated CD8 T cells” value in experiment [1] was “insufficient to improve the polyfunctionality”. In addition, in experiment [2] (FIGS. 10A-10C legend), the “cytokine production in tumor specific T cells” value is reported as “increased cytokine production”. The “IFNγ production of tumor-antigen specific CD8 T cells” value in experiment [2] (female mice, FIG. 10C) is recorded as “increased”; in experiment [2] (male mice, chemically castrated (degarelix), FIG. 10B), “increased”.
